Molecules are shown by their SMILES. pEC50: −log10 of the molar value.

Sequence of Glycogen synthase kinase-3 beta (P49841 whole entry): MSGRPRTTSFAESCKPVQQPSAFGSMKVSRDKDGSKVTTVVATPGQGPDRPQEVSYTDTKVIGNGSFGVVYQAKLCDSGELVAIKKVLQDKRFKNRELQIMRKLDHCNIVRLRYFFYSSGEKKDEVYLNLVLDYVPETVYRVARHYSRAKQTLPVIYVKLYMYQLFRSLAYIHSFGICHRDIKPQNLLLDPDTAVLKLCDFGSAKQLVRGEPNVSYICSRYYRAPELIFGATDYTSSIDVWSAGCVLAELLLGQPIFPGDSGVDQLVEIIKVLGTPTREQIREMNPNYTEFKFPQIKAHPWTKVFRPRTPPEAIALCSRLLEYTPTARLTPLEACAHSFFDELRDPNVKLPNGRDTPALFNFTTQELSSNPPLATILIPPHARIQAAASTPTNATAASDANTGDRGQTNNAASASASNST

This assay concerns the target Glycogen synthase kinase-3 beta (Homo sapiens, UniProt P49841). The experiment in a line: concentration-response blocking of human GSK3B – biochemical, luminescence, cell-free homogeneous, retest, dose response (AID 434954).
Usually pEC50 stands for the EC50 on a negative log10 scale, so that one unit is a factor of ten. As to `COc1ccc(C2=NOC(C(=O)Nc3cccnc3)C2)cc1` (configuration not stated) [SMR000130842], the pEC50 is less than 3.52.
Compound `CCc1nn(CC(=O)NCCC(C)C)c(=O)c2cc3c(OC)cccc3n12` [2-(4-ethyl-9-methoxy-1-oxo-[1,2,4]triazino[4,5-a]indol-2-yl)-N-(3-methylbutyl)acetamide] showed a pEC50 of less than 3.52.
In the case of `C=CCn1c(SCC(=O)Nc2ccc(Cl)cn2)nnc1C1CC1`, the pEC50 was 4.40.
Under `CS(=O)(=O)Nc1cccc(-c2cn3c(n2)SCC3)c1` [MLS001167062] stands less than 3.52.
For the compound `CC(C)OCCCNC(=O)c1ccc(CS(=O)(=O)Cc2ccccc2F)o1` [5-[(2-fluorophenyl)methylsulfonylmethyl]-N-(3-propan-2-yloxypropyl)furan-2-carboxamide], the pEC50 is less than 3.52.
Under `CC(C)Cc1ccccc1O` [SMR000639202] stands less than 3.52; under `Cc1ccc2c(c1)N(C(=O)CCC(=O)NCc1ccccc1)CC(C)O2` (configuration not stated), less than 3.52; under `COC(=O)[C@@H]1Cc2c([nH]c3ccccc23)C2CCC(=O)N21` (stereo partly drawn) [methyl (5S)-3-oxidanylidene-1,2,5,6,11,11b-hexahydroindolizino[8,7-b]indole-5-carboxylate], less than 3.52.
As for `COC(=O)C(C)Sc1ccc2nnc(-c3ccc(F)cc3)n2n1` (configuration not stated) [MLS000093331], the negative-log EC50 (pEC50) is 4.92.
The figure for `O=C(NCCN1C(=O)S/C(=C\c2ccc(Cl)c(Cl)c2)C1=O)C1COc2ccccc2O1` (configuration not stated) [SMR000254587] is less than 3.52.
Under `COCCn1nnnc1C(c1cc2cc(C)ccc2[nH]c1=O)N1CCc2ccccc21` (configuration not stated) [SMR000122998] stands less than 3.52.
The figure for `CN(C)c1nc(N)c([N+](=O)[O-])c(NCCO)n1` is less than 3.52; for `O=C(O)COc1ccc(C(=O)c2ccccc2)cc1` [2-[4-(phenylcarbonyl)phenoxy]ethanoic acid] it is less than 3.52.
In the case of `CCOc1ccccc1NC(=O)N1CCC2(CC1)OCCO2` [MLS000581263], the pEC50 is less than 3.52.
Consider `O=C1CCCC2=Nc3ncnn3C(c3cccs3)C12` (configuration not stated) [9-thiophen-2-yl-5,6,7,9-tetrahydro-1H-[1,2,4]triazolo[5,1-b]quinazolin-8-one], for which the pEC50 is less than 3.52.
The figure for `Cc1ccc(Sc2ccc(CN=O)cc2[N+](=O)[O-])cc1` [4-[(4-methylphenyl)thio]-3-nitrobenzaldehyde oxime] is 4.29; for `CCCCn1nc(NC(=O)c2cccs2)c2cc3cc(OC)ccc3nc21` [SMR000046614] it is 5.03.
The figure for `O=C(Nc1ccc(Cl)cc1)Nc1ccccn1` [1-(4-chlorophenyl)-3-(2-pyridinyl)urea] is 4.36.
Under `Cc1ccc(CN=Nc2ncnc3nc[nH]c23)cc1` [MLS000419179] stands 4.52; under `COc1ccc2c(c1)-c1c(sn(-c3ccc(OC)c(OC)c3)c1=S)C(C)(C)N2`, less than 3.52; under `CCc1ccc(S(=O)(=O)Nc2ccc(O)c3c(=O)cc(-c4ccccc4Cl)oc23)cc1` [SMR000465243], less than 3.52.
In the case of `Cc1ccc(CNc2nc(N)c([N+](=O)[O-])c(Nc3ccc(F)cc3)n2)cc1` [N4-(4-fluorophenyl)-N2-[(4-methylphenyl)methyl]-5-nitro-pyrimidine-2,4,6-triamine], the negative-log EC50 (pEC50) was less than 3.52.
Under `O=c1cc(-c2ccccc2Cl)oc2c(Br)ccc(O)c12` [8-bromo-2-(2-chlorophenyl)-5-hydroxy-1-benzopyran-4-one] stands less than 3.52; under `O=c1cc(-c2ccc(O)cc2)oc2cc(O)cc(O)c12` [Naringenin, 18], 4.31; under `CCc1nnc(NC(=O)c2cc(-c3ccccc3)nn2-c2ccccc2)s1` [SMR000152662], less than 3.52.
`O=Cc1cn(-c2ccccc2)nc1-c1ccc(F)cc1` [3-(4-fluorophenyl)-1-phenyl-1H-pyrazole-4-carbaldehyde]: the pEC50 was less than 3.52.
Under `Cc1ccc(Nc2nc(N)c([N+](=O)[O-])c(NCCO)n2)cc1C` [SMR000436043] stands 4.84; under `O=C(COC(=O)c1cc(=O)c2ccccc2o1)NC1CCCC1` [MLS001017387], less than 3.52; under `O=C(c1cccnc1)C1CCCN(Cc2nc(Cc3ccccc3)no2)C1` (configuration not stated) [[1-[[3-(phenylmethyl)-1,2,4-oxadiazol-5-yl]methyl]-3-piperidinyl]-(3-pyridinyl)methanone], less than 3.52.
The figure for `CCN(CC)Cc1c(C(=O)OC(C)C)nnn1-c1nonc1N` [propan-2-yl 1-(4-azanyl-1,2,5-oxadiazol-3-yl)-5-(diethylaminomethyl)-1,2,3-triazole-4-carboxylate] is less than 3.52; for `O=C(CSc1nnc(-c2cccnc2)n1-c1ccccc1)Nc1ccc2c(c1)OCO2` [MLS000050858] it is less than 3.52.
On to `C=CCn1c(=O)c(C(=O)NCc2ccc(Cl)cc2)c(O)c2ccccc21` [N-[(4-chlorophenyl)methyl]-2-hydroxy-4-oxo-1-prop-2-enyl-3-quinolinecarboxamide], for which the pEC50 is less than 3.52.
The figure for `CCN1CCN(c2cc(C)c3cc(NC(=O)c4cccc(OC)c4)ccc3n2)CC1` [N-[2-(4-ethylpiperazin-1-yl)-4-methyl-quinolin-6-yl]-3-methoxy-benzamide] is less than 3.52.
In turn, `Fc1ccc(CSc2nnc(-c3ccccn3)o2)cc1` gave a pEC50 of less than 3.52.
For `CCC(Sc1ccc2nnc(-c3ccc(F)cc3)n2n1)C(=O)O` (configuration not stated) [2-[[3-(4-fluorophenyl)-[1,2,4]triazolo[4,3-b]pyridazin-6-yl]thio]butanoic acid], the pEC50 was 4.53.
Take `c1ccc(-c2nc(NCCCn3ccnc3)c3ccccc3n2)cc1` [MLS001007021]: the pEC50 is 4.47.
The figure for `CCOC(=O)C1C(C)=Nc2ncnn2C1c1cc(Br)ccc1F` (configuration not stated) [ethyl 7-(5-bromo-2-fluorophenyl)-5-methyl-1,7-dihydro-[1,2,4]triazolo[1,5-a]pyrimidine-6-carboxylate] is 4.62.
The figure for `COc1ccc(C=c2sc(=CC(=O)C(C)(C)C)[nH]c2=O)cc1O` [2-(3,3-dimethyl-2-oxidanylidene-butylidene)-5-[(4-methoxy-3-oxidanyl-phenyl)methylidene]-1,3-thiazolidin-4-one] is 5.14; for `CN(C)c1ccc(-c2nc3ccccc3n2C)cc1` [MLS000089904] it is less than 3.52.
Take `Cc1cc(C)c(NC(=O)c2ccc(S(=O)(=O)N3CCOCC3)cc2)c(C)c1` [MLS000100511]: the pEC50 is less than 3.52.
The figure for `O=C1/C(=C\c2ccc(O)cc2)SC(=S)N1Cc1ccccc1` [(5E)-5-[(4-hydroxyphenyl)methylidene]-3-(phenylmethyl)-2-sulfanylidene-1,3-thiazolidin-4-one] is less than 3.52.
The figure for `c1ccc(CCCNCC2COc3ccccc3O2)cc1` (configuration not stated) is less than 3.52; for `COc1cccc(NC(=O)CN(C2=NC3CS(=O)(=O)CC3S2)c2cccc(C)c2)c1` (configuration not stated) [MLS001110132] it is less than 3.52.
The figure for `COCc1c(C(N)=O)nnn1-c1nonc1N` [MLS000089737] is less than 3.52; for `COc1ccc(CN(CC(=O)NCCc2ccccc2)C(=O)CCC(=O)Nc2ccccn2)cc1` [N'-[(4-methoxyphenyl)methyl]-N'-[2-oxo-2-(2-phenylethylamino)ethyl]-N-pyridin-2-ylbutanediamide] it is less than 3.52; for `CCOC(=O)c1c(S(=O)(=O)NCC(=O)Nc2ccccc2)c(C)n(C)c1C` [MLS001028712] it is less than 3.52.
In turn, `COc1ccc(-n2nc3c(N)n[nH]c3cc2=O)cc1` [SMR000337768] had a pEC50 of 4.85.

The values are drawn from BindingDB's records for doi:10.7270/Q2TX3CTT (Broad Institute, 2010).
